By half-life is commonly meant the time in which the quantity being followed falls by half. Low values mean rapid decline, high ones slow decline.

Consider six compounds from US7238830B2, “N-alkylaspartyl dipeptide ester compounds” (Ajinomoto Co., Inc., priority 1998, dated 2007).

Each structure is given as a SMILES string. Peptide text beside a SMILES is read from it.

Data set [1] is described as follows: Sensory evaluation of sweetness (sweetening potency) relative to sucrose. The note with it: for Sweetness (sweetening potency): sensory evaluation; for sweetness potency: values compared to sweetening potency of a 4% aqueous solution of sucrose. The source says: For example, the sweetness of N-[N-[3-(3-hydroxy-4-methoxyphenyl)-3-methylbutyl]-L-α-aspartyl]-L-phenylalanine 1-methyl ester was approximately 70000 times that of sugar, the sweetness of N-[N-[3-(3-methyl-4 hydroxyphenyl)-3-methylbutyl]-L-α-aspartyl]-L-phenylalanine 1-methyl ester was approximately 70000 times that of sugar, the sweetness of N-[N-[3-(3-hydroxy-4-methylphenyl)-3-methylbutyl]-L-α- aspartyl]-L-phenylalanine 1-methyl ester was approximately 60000 times that of sugar, and the sweetness of N-[N-((RS)-3-(3 hydroxy-4-methoxyphenyl) butyl]-L-α-aspartyl]-L-phenylalanine 1-methyl ester was approximately 50000 times that of sugar. […] Sensory evaluations can be performed as described in, for example, B. T. Carr, S. D. Pecore, K. M. Gibes and G. E. Dubois, “Sensory Methods for Sweetner Evaluation” in Flavor Measurement, edited by C. T. Ho and C. H. Manley, Marcel Decker, Inc. (1992).

A further data set is described as follows: physchem. The data set is classed as physicochemical.
For data set [2] the following is noted: reported in WO 94/11391; compared to 2%, 5% and 10% sucrose solutions; cited from earlier work.

Consider `COC(=O)[C@H](Cc1ccccc1)NC(=O)[C@H](CC(=O)O)NCCC(C)(C)c1ccc(O)cc1` [Compound 8, N-[N-[3-(4-hydroxyphenyl)-3-methylbutyl]-L-α-aspartyl]-L-phenylalanine 1 methyl ester], for which, in data set [1], the “Sweetness (sweetening potency)” value is 25000 times the sweetness of sugar and the sweetness potency worked out at 25000. In addition, in the data set “physchem”, the “half life in a buffer” value came out at 43.6 h.

For the compound `COC(=O)[C@H](Cc1ccccc1)NC(=O)[C@H](CC(=O)O)NCCC(C)(C)c1ccc(O)c(OC)c1` [Compound 9, N-[N-[3-(3-methoxy-4-hydroxyphenyl)-3-methylbutyl]-L-α-aspartyl)-L-phenylalanine 1 methyl ester], in data set [1], the “Sweetness (sweetening potency)” value is listed as 40000 times the sweetness of sugar and the sweetness potency is 40000. The “half life in a buffer” value in “physchem” turned out to be 34.4 h.

With `COC(=O)[C@H](Cc1ccccc1)NC(=O)[C@H](CC(=O)O)NCCC(C)(C)c1ccc(OC)c(O)c1` [Compound 10, N-[N-[3-(3-hydroxy-4-methoxyphenyl)-3-methylbutyl]-L-α-aspartyl]-L-phenylalanine 1-methyl ester], in data set [1] (listed as Example 1), the “Sweetness (sweetening potency)” value was 70000 times the sweetness of sugar. In data set [1], this compound had a sweetness potency of 70000. Moreover, in the data set “physchem”, the “half life in a buffer” value turned out to be 44.5 h.

In the case of `COC(=O)[C@H](Cc1ccccc1)NC(=O)[C@H](CC(=O)O)NCCCc1ccc(O)c(OC)c1` [N-[N-(3-(3-methoxy-4-hydroxyphenylpropyl)-L-α-aspartyl]-L-phenylalanine 1-methyl ester], the sweetening potency in data set [2] is given as 2500 times that of sucrose.

Regarding `COC(=O)[C@H](Cc1ccccc1)NC(=O)[C@H](CC(=O)O)NCCCc1ccccc1` [N-[N-(3-phenylpropyl)-L-(α-aspartyl]-L-phenylalanine 1-methyl ester], in data set [2], the sweetening potency is given as 1500 times that of sucrose.

In “physchem” (buffer, pH 3), `COC(=O)[C@H](Cc1ccccc1)NC(=O)[C@@H](N)CC(=O)O` [aspartame, reference compound] (H-Asp-Phe-OMe) showed a half-life of 23.5 h.
